Results reported in PubChem BioAssay AID1918991 (Molecular Pharmacology Branch, DTP, NCI, 2023).
Where “and” joins values, the source holds several entries; their conditions need not be identical. Equal values may be shown once.

System: 186277-243-T-J2-PDC complex spheroid growth
Assay: Anticancer human tumor 186277-243-T-J2-PDC patient-derived colon adenocarcinoma cell line growth inhibition [AhR]
Conditions: for viability, T/C: stronger effect = lower value
In short: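 Complex tumor spheroids co-cultured with HUVEC and human MSC stroma; AhR antagonists tested in combination with standard-of-care and investigational agents. Top concentration at or near clinical Cmax (else 10 microM), half-log dilutions; growth expressed as percent test/control.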

[1] = curve of first compound, second compound 0.1 µM
[2] = curve of first compound, second compound 0.316 µM
[3] = curve of first compound, second compound 1 µM
[4] = curve of first compound, second compound 3.16 µM
[5] = curve of first compound, second compound 10 µM
[6] = second compound 0.1 µM, first compound 0.00316 µM
[7] = second compound 0.1 µM, first compound 0.01 µM
[8] = second compound 0.1 µM, first compound 0.0316 µM
[9] = second compound 0.1 µM, first compound 0.1 µM
[10] = second compound 0.1 µM, first compound 0.316 µM
[11] = second compound 0.1 µM, first compound 1 µM
[12] = second compound 0.316 µM, first compound 0.00316 µM
[13] = second compound 0.316 µM, first compound 0.01 µM
[14] = second compound 0.316 µM, first compound 0.0316 µM
[15] = second compound 0.316 µM, first compound 0.1 µM
[16] = second compound 0.316 µM, first compound 0.316 µM
[17] = second compound 0.316 µM, first compound 1 µM
[18] = second compound 1 µM, first compound 0.00316 µM
[19] = second compound 1 µM, first compound 0.01 µM
[20] = second compound 1 µM, first compound 0.0316 µM
[21] = second compound 1 µM, first compound 0.1 µM
[22] = second compound 1 µM, first compound 0.316 µM
[23] = second compound 1 µM, first compound 1 µM
[24] = second compound 3.16 µM, first compound 0.00316 µM
[25] = second compound 3.16 µM, first compound 0.01 µM
[26] = second compound 3.16 µM, first compound 0.0316 µM
[27] = second compound 3.16 µM, first compound 0.1 µM
[28] = second compound 3.16 µM, first compound 0.316 µM
[29] = second compound 3.16 µM, first compound 1 µM
[30] = second compound 10 µM, first compound 0.00316 µM
[31] = second compound 10 µM, first compound 0.01 µM
[32] = second compound 10 µM, first compound 0.0316 µM
[33] = second compound 10 µM, first compound 0.1 µM
[34] = second compound 10 µM, first compound 0.316 µM
[35] = second compound 10 µM, first compound 1 µM
[36] = second compound 0.1 µM, first compound 3.16 µM
[37] = second compound 0.1 µM, first compound 10 µM
[38] = second compound 0.316 µM, first compound 3.16 µM
[39] = second compound 0.316 µM, first compound 10 µM
[40] = second compound 1 µM, first compound 3.16 µM
[41] = second compound 1 µM, first compound 10 µM
[42] = second compound 3.16 µM, first compound 3.16 µM
[43] = second compound 3.16 µM, first compound 10 µM
[44] = second compound 10 µM, first compound 3.16 µM
[45] = second compound 10 µM, first compound 10 µM
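Further: spheroids exposed to compounds for seven days before the viability read.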
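Wherever viability, T/C is given: luminescent signal used as a stand-in for viable cell amount; 100% = DMSO vehicle control wells.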

SMILES | IC50 [1] | IC50 [2] | IC50 [3] | IC50 [4] | IC50 [5] | viability, T/C [8] | viability, T/C [9] | viability, T/C [10] | viability, T/C [11] | viability, T/C [14] | viability, T/C [15] | viability, T/C [16] | viability, T/C [17] | viability, T/C [20] | viability, T/C [21] | viability, T/C [22] | viability, T/C [23] | viability, T/C [26] | viability, T/C [27] | viability, T/C [28] | further results
Nc1ncn(C2CC(O)C(CO)O2)c(=O)n1 (centres undefined) + Cc1ccccc1N=Nc1ccc(NC(=O)c2ccnn2C)c(C)c1 | > 1 µM | > 1 µM | > 1 µM | > 1 µM | > 1 µM | 105% | 112% | 103% | 143% | 108% | 115% | 120% | 144% | 102% | 128% | 119% | 144% | 101% | 105% | 113% | viability, T/C [6]: 115%; viability, T/C [7]: 108%; viability, T/C [12]: 118%; viability, T/C [13]: 96.8%; viability, T/C [18]: 100%; viability, T/C [19]: 102%; viability, T/C [24]: 103%; viability, T/C [25]: 128%; viability, T/C [29]: 122%; viability, T/C [30]: 90.2%; viability, T/C [31]: 97.2%; viability, T/C [32]: 103%; viability, T/C [33]: 109%; viability, T/C [34]: 104%; viability, T/C [35]: 103%
COc1cc(C2c3cc4c(cc3C(OC3OC5COC(C)OC5C(O)C3O)C3COC(=O)C23)OCO4)cc(OC)c1O (centres undefined) + Cc1cncc(-c2nc(NCCc3c[nH]c4ccccc34)c3ncn(C(C)C)c3n2)c1 | 2.13 µM | 1.44 µM | 1.6 µM | 1.45 µM | 0.0485 µM | 119% | 111% | 113% | 58.7% | 119% | 124% | 107% | 53.4% | 110% | 149% | 99.8% | 59.5% | 127% | 147% | 89.3% | viability, T/C [36]: 52%; viability, T/C [37]: 21.9%; viability, T/C [38]: 48%; viability, T/C [39]: 21.1%; viability, T/C [40]: 44.6%; viability, T/C [41]: 19.9%; viability, T/C [29]: 59.4%; viability, T/C [42]: 42.7%; viability, T/C [43]: 19.9%; viability, T/C [32]: 55%; viability, T/C [33]: 44.5%; viability, T/C [34]: 20.8%; viability, T/C [35]: 24.3%; viability, T/C [44]: 22.9%; viability, T/C [45]: 9.36%
Nc1ncn(C2CC(O)C(CO)O2)c(=O)n1 (centres undefined) + CC(CO)NC(=O)c1cc(-c2ccc(Cl)cc2)nn(-c2cnn(C)c2)c1=O | > 1 µM | > 1 µM | > 1 µM | > 1 µM | > 1 µM | 89.3% | 85.1% | 64.5% | 52.1% | 85.8% | 84.9% | 63.6% | 52.8% | 96.1% | 80.9% | 66.2% | 55.2% | 94.3% | 82.5% | 66.8% | viability, T/C [6]: 110%; viability, T/C [7]: 103%; viability, T/C [12]: 92%; viability, T/C [13]: 82.3%; viability, T/C [18]: 84.6%; viability, T/C [19]: 97.6%; viability, T/C [24]: 91.5%; viability, T/C [25]: 95.1%; viability, T/C [29]: 59.4%; viability, T/C [30]: 90.3%; viability, T/C [31]: 81.2%; viability, T/C [32]: 90.9%; viability, T/C [33]: 79%; viability, T/C [34]: 63.1%; viability, T/C [35]: 51.7%
Nc1ccccc1NC(=O)c1ccc(CNC(=O)OCc2cccnc2)cc1 |  |  |  |  |  |  |  |  |  |  |  |  |  |  |  |  |  |  |  |  | viability, T/C (compound 0.0316 µM): 88.5% and 90.8% and 86.3%; viability, T/C (compound 0.1 µM): 93.2% and 91.9% and 87.4%; viability, T/C (compound 0.316 µM): 76.2% and 99.5% and 68.8%; viability, T/C (compound 1 µM): 86.5% and 92.2% and 37%; viability, T/C (compound 3.16 µM): 68.6% and 79.5% and 12.6%; viability, T/C (compound 10 µM): 8.95% and 16.8% and 0.82%; IC50 (curve of compound): 4.53 µM and 5.44 µM and 0.639 µM
O=C(c1cc(Cc2n[nH]c(=O)c3ccccc23)ccc1F)N1CCN(C(=O)C2CC2)CC1 + CC(CO)NC(=O)c1cc(-c2ccc(Cl)cc2)nn(-c2cnn(C)c2)c1=O | 6.18 µM | 6.46 µM | 8.51 µM | 7.34 µM | 4.64 µM | 99.2% | 108% | 102% | 90.3% | 96.3% | 97.2% | 100% | 88.5% | 104% | 95.3% | 98% | 93.7% | 98.1% | 93.2% | 87.9% | viability, T/C [36]: 69.9%; viability, T/C [37]: 36.1%; viability, T/C [38]: 74.9%; viability, T/C [39]: 35.1%; viability, T/C [40]: 71.6%; viability, T/C [41]: 46.5%; viability, T/C [29]: 90.9%; viability, T/C [42]: 71.9%; viability, T/C [43]: 41.7%; viability, T/C [32]: 80%; viability, T/C [33]: 86.3%; viability, T/C [34]: 88.5%; viability, T/C [35]: 69.2%; viability, T/C [44]: 58.4%; viability, T/C [45]: 36.5%
Nc1ncn(C2CC(O)C(CO)S2)c(=O)n1 (centres undefined) |  |  |  |  |  |  |  |  |  |  |  |  |  |  |  |  |  |  |  |  | viability, T/C (compound 0.000949 µM): 87.2% and 104% and 95.7%; viability, T/C (compound 0.003 µM): 88% and 111% and 97.1%; viability, T/C (compound 0.00949 µM): 108% and 115% and 92.5%; viability, T/C (compound 0.03 µM): 125% and 111% and 78.5%; viability, T/C (compound 0.0949 µM): 128% and 116% and 60.8%; viability, T/C (compound 0.3 µM): 102% and 117% and 26.4%; IC50 (curve of compound): > 0.3 µM and 0.134 µM
Nc1ncn(C2CC(O)C(CO)O2)c(=O)n1 (centres undefined) + Cc1cncc(-c2nc(NCCc3c[nH]c4ccccc34)c3ncn(C(C)C)c3n2)c1 | > 1 µM | > 1 µM | > 1 µM | > 1 µM | > 1 µM | 91.4% | 119% | 147% | 143% | 107% | 113% | 137% | 150% | 99.9% | 126% | 156% | 157% | 111% | 118% | 120% | viability, T/C [6]: 116%; viability, T/C [7]: 86.8%; viability, T/C [12]: 120%; viability, T/C [13]: 93.6%; viability, T/C [18]: 98.5%; viability, T/C [19]: 104%; viability, T/C [24]: 114%; viability, T/C [25]: 113%; viability, T/C [29]: 165%; viability, T/C [30]: 59.8%; viability, T/C [31]: 65.1%; viability, T/C [32]: 56.7%; viability, T/C [33]: 46.6%; viability, T/C [34]: 52.6%; viability, T/C [35]: 68.6%
